We go through 24 molecules from ChEMBL document CHEMBL1133184, “SAR of 9-amino-1,2,3,4-tetrahydroacridine-based acetylcholinesterase inhibitors: synthesis, enzyme inhibitory activity, QSAR, and structure-based CoMFA of tacrine analogues” (J Med Chem, 2000).

Molecules are shown by their SMILES.

T1 sequence (P22303 whole entry): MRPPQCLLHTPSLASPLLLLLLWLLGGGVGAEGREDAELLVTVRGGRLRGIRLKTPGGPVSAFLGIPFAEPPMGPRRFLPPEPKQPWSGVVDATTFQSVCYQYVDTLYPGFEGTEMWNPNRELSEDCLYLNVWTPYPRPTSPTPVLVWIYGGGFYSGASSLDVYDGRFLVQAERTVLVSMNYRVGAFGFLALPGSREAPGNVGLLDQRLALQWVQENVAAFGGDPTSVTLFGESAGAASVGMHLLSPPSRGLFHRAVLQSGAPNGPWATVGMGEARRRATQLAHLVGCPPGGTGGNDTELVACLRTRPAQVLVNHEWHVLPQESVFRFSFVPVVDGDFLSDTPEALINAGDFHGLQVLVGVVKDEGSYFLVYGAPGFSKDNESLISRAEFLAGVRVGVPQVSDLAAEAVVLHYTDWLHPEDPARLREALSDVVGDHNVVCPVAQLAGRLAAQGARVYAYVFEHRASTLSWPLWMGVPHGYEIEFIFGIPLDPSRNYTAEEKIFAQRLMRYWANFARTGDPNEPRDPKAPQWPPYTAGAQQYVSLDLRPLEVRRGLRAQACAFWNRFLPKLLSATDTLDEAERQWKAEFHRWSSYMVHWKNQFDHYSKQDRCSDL

The first assay concerns the target T1, Acetylcholinesterase (Homo sapiens, UniProt P22303).
Description: Experimental pIC50 values for the inhibition of acetylcholinesterase
The IC50 is the concentration that inhibits the measured activity by half. A higher IC50 goes with weaker potency in that assay. `Nc1c2c(nc3ccccc13)-c1ccc(F)cc1C2` gave an IC50 of 437 nM.
`CCCCCCCNc1c2c(nc3cc([N+](=O)[O-])ccc13)CCCC2` had an IC50 of 295 nM.
Same read-out and setting: the value for `COc1ccc2c(N)c3c(nc2c1)CCCC3` was 355 nM.
Still for that read-out and setting: the value for `O=[N+]([O-])c1ccc2nc3c(c(NCc4ccccc4)c2c1)CCCC3` was 1580 nM.
Same read-out and setting: in the case of `Clc1ccc2c(NCc3ccccc3)c3c(nc2c1)CCCC3` it was 170 nM; in that of `Nc1c2c(nc3cc(Cl)ccc13)-c1ccccc1C2`, 6610 nM.
`CCCCCCCNc1c2c(nc3cc(Cl)ccc13)CCCC2` showed an IC50 of 13.2 nM.
On the same count and under the same terms, the value for `Nc1c2c(nc3ccc([N+](=O)[O-])cc13)CCCC2` was 3020 nM.
Regarding `Cc1ccc2c(N)c3c(nc2c1)CCCC3`, half-maximal inhibition (IC50) required 100 nM.
The molecule `CCCCCCCNc1c2c(nc3cc(C)ccc13)CCCC2` showed an IC50 of 129 nM.
The same measure, in the same setting: in the case of `Nc1ccc2nc3c(c(N)c2c1)CCCC3` it was 3800 nM.
On the same count and under the same terms, in the case of `O=[N+]([O-])c1ccc2c(NCc3ccccc3)c3c(nc2c1)CCCC3` it was 4790 nM; in that of `Nc1c2c(nc3cc(F)ccc13)CCCC2`, 87.1 nM; in that of `CCCCCCCNc1c2c(nc3cc(F)ccc13)CCCC2`, 45.7 nM.
Still for that read-out and setting: in the case of `CCCCCCCNc1c2c(nc3ccc(C)cc13)CCCC2` it was 389 nM.
Molecule `COc1cc2nc3c(c(N)c2cc1OC)CCCC3` showed an IC50 of 5130 nM.
On the same count and under the same terms, in the case of `Nc1c2c(nc3cc(Cl)c(Cl)cc13)CCCC2` it was 479 nM; in that of `CCCCCCCNc1c2c(nc3cc(OC)ccc13)CCCC2`, 468 nM.
`Nc1c2c(nc3ccc(Cl)cc13)CCCC2` had an IC50 of 550 nM.
The same measure, in the same setting: the value for `Cc1ccc2nc3c(c(N)c2c1)CCCC3` was 8130 nM; that for `Cc1ccc2c(NCc3ccccc3)c3c(nc2c1)CCCC3` was 741 nM; that for `COc1cccc2c1Cc1c-2nc2ccccc2c1N` was 1660 nM.
Molecule `Cc1ccc2nc3c(c(NCc4ccccc4)c2c1)CCCC3` showed an IC50 of 3720 nM.

The next assay has as its target T1, Acetylcholinesterase. The source holds these as a separate data set.
Description: Inhibitory activity against human erythrocyte acetylcholinesterase
In the case of `CCCCCCCNc1c2c(nc3cc([N+](=O)[O-])ccc13)CCCC2`, it took 290 nM to reach half-maximal inhibition (IC50).
The same measure, in the same setting: the value for `COc1ccc2c(N)c3c(nc2c1)CCCC3` was 350 nM.
The same measure, in the same setting: the value for `O=[N+]([O-])c1ccc2nc3c(c(NCc4ccccc4)c2c1)CCCC3` was 1600 nM.
In turn, `Clc1ccc2c(NCc3ccccc3)c3c(nc2c1)CCCC3` showed an IC50 of 170 nM.
On the same count and under the same terms, in the case of `CCCCCCCNc1c2c(nc3cc(Cl)ccc13)CCCC2` it was 13 nM; in that of `Nc1c2c(nc3ccc([N+](=O)[O-])cc13)CCCC2`, 3000 nM; in that of `Cc1ccc2c(N)c3c(nc2c1)CCCC3`, 100 nM.
Same read-out and setting: the value for `CCCCCCCNc1c2c(nc3cc(C)ccc13)CCCC2` was 130 nM.
Still for that read-out and setting: the value for `Nc1ccc2nc3c(c(N)c2c1)CCCC3` was 3800 nM; that for `O=[N+]([O-])c1ccc2c(NCc3ccccc3)c3c(nc2c1)CCCC3` was 4800 nM; that for `Nc1c2c(nc3cc(F)ccc13)CCCC2` was 87 nM.
Turning to `CCCCCCCNc1c2c(nc3cc(F)ccc13)CCCC2`, the half-inhibitory concentration (IC50) turned out to be 45 nM.
As for `CCCCCCCNc1c2c(nc3ccc(C)cc13)CCCC2`, the IC50 is 390 nM.
The same measure, in the same setting: in the case of `Nc1c2c(nc3cc(Br)ccc13)CCCC2` it was 66 nM; in that of `COc1cc2nc3c(c(N)c2cc1OC)CCCC3`, 5200 nM.
Still for that read-out and setting: in the case of `Nc1c2c(nc3cc(Cl)c(Cl)cc13)CCCC2` it was 470 nM.
For `CCCCCCCNc1c2c(nc3cc(OC)ccc13)CCCC2`, the IC50 turned out to be 460 nM.
Molecule `Nc1c2c(nc3ccc(Cl)cc13)CCCC2` registered an IC50 of 550 nM.
On the same count and under the same terms, in the case of `Cc1ccc2nc3c(c(N)c2c1)CCCC3` it was 8100 nM; in that of `Cc1ccc2c(NCc3ccccc3)c3c(nc2c1)CCCC3`, 750 nM.
For `Cc1ccc2nc3c(c(NCc4ccccc4)c2c1)CCCC3`, the IC50 was 3700 nM.
